Results: patent US9618524B2, “Method, composition, isolation and identification of a plaque particle and related biomarker” (Plaxgen Inc., priority 2012, dated 2017)

What was measured:
Assay in all cases: Mass spectroscopy proteomics, semi-quantitative binding affinity of serum proteins (plaqueproteome, Table 2)
Conditions in all cases: higher number = stronger affinity
[1] = target: T1, Abeta-42 plaque particles (Homo sapiens, UniProt P05067)
T1 construct: Abeta 1-42
Summary of the method: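 AD patient serum or plasma (50% in PBS) was incubated with Abeta-42 aggregates (30 μg) for 1 h at 37 °C, then stained with Thioflavin S for 30 min. Labeled particles were FACS-sorted, trypsin/Lys-C digested overnight and analyzed by MS/MS. Sequest searched human UniProt; Scaffold/Protein Prophet validated the identifications.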

[2] = test system: High Density cholesterol (Chl Large) plaque particles; design: species or system human
Summary of the method: (§1)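 Read-out is MS/MS protein identification (Sequest, strict trypsin, 20 ppm parent tolerance; Scaffold probabilities) of serum proteins bound to flow-sorted cholesterol plaque particles. These particles formed when 50% atherosclerotic serum was incubated with 30 μg cholesterol aggregates for 1 hr at 37° C.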

[3] = test system: Low density cholesterol (Chl small) plaque particles; design: species or system human
Summary of the method: as §1

Tau plaque particles = test system: Tau plaque particles; design: species or system human
Summary of the method: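 Synthetic Tau-74 and Tau-275 peptides (1 mg/mL PBS, 37° C, 2 h) aggregated; 30 μg aggregates incubated with 50% serum/plasma 1 h at 37° C, stained with Thioflavin S, and plaque particles sorted by flow cytometry. Bound proteins trypsin-digested and identified by MS/MS against human UniProt.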

[4] = target: T2, alpha-synuclein plaque particles (Homo sapiens, UniProt P37840)
T2 construct: 140 amino acids polypeptide
Summary of the method: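 AD-subject plasma or serum (800 μL of 50%) mixed with 30 μg preformed alpha-synuclein aggregates for 1 h at 37 °C; Thioflavin S-positive particles isolated by flow sorting. After reduction, acrylamide alkylation and overnight tryptic digestion, serum proteins identified by MS/MS with Sequest and Scaffold.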

**Q.** Ig kappa chain V-III region IARC/BL41 was tested. Which “Semi-quantitative analysis of proteins binding to different plaque particles: Abeta-42” value [1] did it give?
**A.** 0

**Q.** And the “Semi-quantitative analysis of proteins binding to different plaque particles: Chl Large” value [2]?
**A.** 0

**Q.** What about the “Semi-quantitative analysis of proteins binding to different plaque particles: Chl small” value [3] of the same substance?
**A.** 1

**Q.** What about the “Semi-quantitative analysis of proteins binding to different plaque particles: Tau” value (Tau plaque particles) of the same substance?
**A.** 2

**Q.** What about the “Semi-quantitative analysis of proteins binding to different plaque particles: Synuclein” value [4] of the same substance?
**A.** 0

**Q.** Complement component C6 was tested. Which “Semi-quantitative analysis of proteins binding to different plaque particles: Abeta-42” value [1] did it give?
**A.** 0

**Q.** What about the “Semi-quantitative analysis of proteins binding to different plaque particles: Chl Large” value [2] of the same substance?
**A.** 1

**Q.** And the “Semi-quantitative analysis of proteins binding to different plaque particles: Chl small” value [3]?
**A.** 1

**Q.** What about the “Semi-quantitative analysis of proteins binding to different plaque particles: Tau” value (Tau plaque particles) of the same substance?
**A.** 1

**Q.** And the “Semi-quantitative analysis of proteins binding to different plaque particles: Synuclein” value [4]?
**A.** 3

**Q.** How did the “Semi-quantitative analysis of proteins binding to different plaque particles: Abeta-42” value [1] turn out when Apolipoprotein D was run?
**A.** 0

**Q.** And the “Semi-quantitative analysis of proteins binding to different plaque particles: Chl Large” value [2]?
**A.** 2

**Q.** And the “Semi-quantitative analysis of proteins binding to different plaque particles: Chl small” value [3]?
**A.** 2

**Q.** What about the “Semi-quantitative analysis of proteins binding to different plaque particles: Tau” value (Tau plaque particles) of the same substance?
**A.** 3

**Q.** What about the “Semi-quantitative analysis of proteins binding to different plaque particles: Synuclein” value [4] of the same substance?
**A.** 1

**Q.** For Ig heavy chain V-III region Gal, which “Semi-quantitative analysis of proteins binding to different plaque particles: Abeta-42” value [1] is on record?
**A.** 2

**Q.** And the “Semi-quantitative analysis of proteins binding to different plaque particles: Chl Large” value [2]?
**A.** 0

**Q.** What about the “Semi-quantitative analysis of proteins binding to different plaque particles: Chl small” value [3] of the same substance?
**A.** 1

**Q.** What about the “Semi-quantitative analysis of proteins binding to different plaque particles: Tau” value (Tau plaque particles) of the same substance?
**A.** 4

**Q.** What about the “Semi-quantitative analysis of proteins binding to different plaque particles: Synuclein” value [4] of the same substance?
**A.** 2

**Q.** With Ig heavy chain V-III region TUR as the substance, how does the “Semi-quantitative analysis of proteins binding to different plaque particles: Abeta-42” value [1] read?
**A.** 4

**Q.** And the “Semi-quantitative analysis of proteins binding to different plaque particles: Chl Large” value [2]?
**A.** 2

**Q.** What about the “Semi-quantitative analysis of proteins binding to different plaque particles: Chl small” value [3] of the same substance?
**A.** 3

**Q.** And the “Semi-quantitative analysis of proteins binding to different plaque particles: Tau” value (Tau plaque particles)?
**A.** 0

**Q.** What about the “Semi-quantitative analysis of proteins binding to different plaque particles: Synuclein” value [4] of the same substance?
**A.** 1

**Q.** With Cluster of Haptoglobin as the substance, how does the “Semi-quantitative analysis of proteins binding to different plaque particles: Abeta-42” value [1] read?
**A.** 25

**Q.** What about the “Semi-quantitative analysis of proteins binding to different plaque particles: Chl Large” value [2] of the same substance?
**A.** 29

**Q.** What about the “Semi-quantitative analysis of proteins binding to different plaque particles: Chl small” value [3] of the same substance?
**A.** 31

**Q.** What about the “Semi-quantitative analysis of proteins binding to different plaque particles: Tau” value (Tau plaque particles) of the same substance?
**A.** 26

**Q.** What about the “Semi-quantitative analysis of proteins binding to different plaque particles: Synuclein” value [4] of the same substance?
**A.** 24

**Q.** Complement C5 was tested. Which “Semi-quantitative analysis of proteins binding to different plaque particles: Abeta-42” value [1] did it give?
**A.** 0

**Q.** And the “Semi-quantitative analysis of proteins binding to different plaque particles: Chl Large” value [2]?
**A.** 5

**Q.** And the “Semi-quantitative analysis of proteins binding to different plaque particles: Chl small” value [3]?
**A.** 3

**Q.** And the “Semi-quantitative analysis of proteins binding to different plaque particles: Tau” value (Tau plaque particles)?
**A.** 1

**Q.** And the “Semi-quantitative analysis of proteins binding to different plaque particles: Synuclein” value [4]?
**A.** 4

**Q.** Which “Semi-quantitative analysis of proteins binding to different plaque particles: Abeta-42” value [1] does the source give for Complement C1q subcomponent subunit C here?
**A.** 0

**Q.** And the “Semi-quantitative analysis of proteins binding to different plaque particles: Chl Large” value [2]?
**A.** 1

**Q.** What about the “Semi-quantitative analysis of proteins binding to different plaque particles: Chl small” value [3] of the same substance?
**A.** 1

**Q.** And the “Semi-quantitative analysis of proteins binding to different plaque particles: Tau” value (Tau plaque particles)?
**A.** 2

**Q.** What about the “Semi-quantitative analysis of proteins binding to different plaque particles: Synuclein” value [4] of the same substance?
**A.** 1

**Q.** For Isoform 2 of Annexin A2, which “Semi-quantitative analysis of proteins binding to different plaque particles: Abeta-42” value [1] is on record?
**A.** 2

**Q.** What about the “Semi-quantitative analysis of proteins binding to different plaque particles: Chl Large” value [2] of the same substance?
**A.** 0

**Q.** What about the “Semi-quantitative analysis of proteins binding to different plaque particles: Chl small” value [3] of the same substance?
**A.** 0

**Q.** And the “Semi-quantitative analysis of proteins binding to different plaque particles: Tau” value (Tau plaque particles)?
**A.** 0

**Q.** What about the “Semi-quantitative analysis of proteins binding to different plaque particles: Synuclein” value [4] of the same substance?
**A.** 0

**Q.** With Ig kappa chain V-I region Ni as the substance, how does the “Semi-quantitative analysis of proteins binding to different plaque particles: Abeta-42” value [1] read?
**A.** 5

**Q.** And the “Semi-quantitative analysis of proteins binding to different plaque particles: Chl Large” value [2]?
**A.** 2

**Q.** And the “Semi-quantitative analysis of proteins binding to different plaque particles: Chl small” value [3]?
**A.** 2

**Q.** What about the “Semi-quantitative analysis of proteins binding to different plaque particles: Tau” value (Tau plaque particles) of the same substance?
**A.** 3

**Q.** What about the “Semi-quantitative analysis of proteins binding to different plaque particles: Synuclein” value [4] of the same substance?
**A.** 2

**Q.** Which results are given for Complement component C9?
**A.** Semi-quantitative analysis of proteins binding to different plaque particles: Abeta-42 [1]: 0; Semi-quantitative analysis of proteins binding to different plaque particles: Chl Large [2]: 1; Semi-quantitative analysis of proteins binding to different plaque particles: Chl small [3]: 1; Semi-quantitative analysis of proteins binding to different plaque particles: Tau (Tau plaque particles): 0; Semi-quantitative analysis of proteins binding to different plaque particles: Synuclein [4]: 1

**Q.** With “Cluster of Ig heavy chain V-III region TEI” as the substance, how does the “Semi-quantitative analysis of proteins binding to different plaque particles: Abeta-42” value [1] read?
**A.** 7

**Q.** And the “Semi-quantitative analysis of proteins binding to different plaque particles: Chl Large” value [2]?
**A.** 5

**Q.** What about the “Semi-quantitative analysis of proteins binding to different plaque particles: Chl small” value [3] of the same substance?
**A.** 6

**Q.** What about the “Semi-quantitative analysis of proteins binding to different plaque particles: Tau” value (Tau plaque particles) of the same substance?
**A.** 5

**Q.** What about the “Semi-quantitative analysis of proteins binding to different plaque particles: Synuclein” value [4] of the same substance?
**A.** 4
